Laboratory results reported in ChEMBL document CHEMBL1201862, “PubChem BioAssay data set” (2004).
Activity calls are given as the source filed them.

Assays:
[1] = A Cell Based Secondary Assay To Explore Cytotoxicity of Compounds that Sensitize Mycobacterium Tuberculosis to Beta-Lactam Antibiotics.; assay type: functional
[2] = molecular target: T1, Microphthalmia-associated transcription factor (Homo sapiens, UniProt O75030); assay: TRPM1 promoter luciferase signal decrease, dose response, MITF inhibitor project, cell-based, SK-MEL-5, cherry-picked, set 3 (AID 493073); assay type: functional
T1 sequence (O75030 whole entry): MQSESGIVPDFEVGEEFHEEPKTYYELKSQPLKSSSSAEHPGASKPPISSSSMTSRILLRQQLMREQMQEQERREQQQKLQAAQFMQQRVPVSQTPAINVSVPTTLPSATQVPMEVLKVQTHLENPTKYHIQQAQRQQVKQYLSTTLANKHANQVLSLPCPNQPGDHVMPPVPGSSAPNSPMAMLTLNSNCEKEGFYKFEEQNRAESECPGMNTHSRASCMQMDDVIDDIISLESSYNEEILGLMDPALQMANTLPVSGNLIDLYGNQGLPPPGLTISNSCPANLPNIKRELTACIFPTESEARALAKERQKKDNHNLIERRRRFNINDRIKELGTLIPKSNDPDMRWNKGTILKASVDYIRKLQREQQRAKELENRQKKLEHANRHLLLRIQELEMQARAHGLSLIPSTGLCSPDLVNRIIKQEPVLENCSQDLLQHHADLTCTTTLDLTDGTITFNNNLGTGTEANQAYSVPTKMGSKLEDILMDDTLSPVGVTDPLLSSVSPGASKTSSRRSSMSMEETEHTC

[3] = cytotoxicity in HEK-293T cells, dose response, cytotoxicity control for BCR NF-kB inhibitor project, luminescence, B-cell screen hits (AID 489021); assay type: functional, cell-based;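 further: HEK-293T cells carrying an NF-kB luciferase reporter; cells exposed to compound for about 14 hours before viability readout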
[4] = molecular target: T2, Heat shock factor protein 1 (Mus musculus, UniProt P38532); assay: inhibition of MG132-induced HSE-luciferase signal, confirmation, cell-based, NIH3T3, luminescence, dose retest (AID 2382); assay type: functional;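 further: NIH3T3 fibroblasts with HSF1-driven luciferase reporter stressed by proteasome inhibitor MG132; luminescence from HSF1-driven luciferase expression after 8 hours of MG132 stress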
T2 sequence (P38532 whole entry): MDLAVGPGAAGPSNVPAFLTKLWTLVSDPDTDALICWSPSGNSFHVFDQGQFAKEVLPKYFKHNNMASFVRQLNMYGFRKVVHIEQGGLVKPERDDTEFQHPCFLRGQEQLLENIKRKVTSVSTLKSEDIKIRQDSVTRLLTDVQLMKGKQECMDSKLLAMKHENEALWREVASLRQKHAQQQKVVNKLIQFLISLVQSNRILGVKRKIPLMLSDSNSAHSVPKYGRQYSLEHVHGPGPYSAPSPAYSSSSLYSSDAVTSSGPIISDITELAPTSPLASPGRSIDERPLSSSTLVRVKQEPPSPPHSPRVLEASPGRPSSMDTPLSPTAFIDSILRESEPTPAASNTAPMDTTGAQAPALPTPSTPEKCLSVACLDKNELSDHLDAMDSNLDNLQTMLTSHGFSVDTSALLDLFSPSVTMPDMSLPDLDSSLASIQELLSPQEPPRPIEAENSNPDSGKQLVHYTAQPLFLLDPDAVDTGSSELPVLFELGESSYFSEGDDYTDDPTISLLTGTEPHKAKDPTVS

[5] = cytotoxicity toward NIH3T3 fibroblasts, dose response, counter-screen, cell-based, ATP luminescence, mouse fibroblasts (AID 2010); assay type: functional;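 further: cells exposed to compound for about 90 hours before reading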
[6] = molecular target: T3, Short transient receptor potential channel 4 (Mus musculus, UniProt Q9QUQ5); assay: mouse TRPC4 channel inhibitors, dose response, cell-based, HEK293 TRPC4/mu-opioid, Fluo-4 calcium (AID 434942); assay type: functional;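 further: potency of inhibitors blocking the TRPC4 calcium response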
T3 sequence (Q9QUQ5 whole entry): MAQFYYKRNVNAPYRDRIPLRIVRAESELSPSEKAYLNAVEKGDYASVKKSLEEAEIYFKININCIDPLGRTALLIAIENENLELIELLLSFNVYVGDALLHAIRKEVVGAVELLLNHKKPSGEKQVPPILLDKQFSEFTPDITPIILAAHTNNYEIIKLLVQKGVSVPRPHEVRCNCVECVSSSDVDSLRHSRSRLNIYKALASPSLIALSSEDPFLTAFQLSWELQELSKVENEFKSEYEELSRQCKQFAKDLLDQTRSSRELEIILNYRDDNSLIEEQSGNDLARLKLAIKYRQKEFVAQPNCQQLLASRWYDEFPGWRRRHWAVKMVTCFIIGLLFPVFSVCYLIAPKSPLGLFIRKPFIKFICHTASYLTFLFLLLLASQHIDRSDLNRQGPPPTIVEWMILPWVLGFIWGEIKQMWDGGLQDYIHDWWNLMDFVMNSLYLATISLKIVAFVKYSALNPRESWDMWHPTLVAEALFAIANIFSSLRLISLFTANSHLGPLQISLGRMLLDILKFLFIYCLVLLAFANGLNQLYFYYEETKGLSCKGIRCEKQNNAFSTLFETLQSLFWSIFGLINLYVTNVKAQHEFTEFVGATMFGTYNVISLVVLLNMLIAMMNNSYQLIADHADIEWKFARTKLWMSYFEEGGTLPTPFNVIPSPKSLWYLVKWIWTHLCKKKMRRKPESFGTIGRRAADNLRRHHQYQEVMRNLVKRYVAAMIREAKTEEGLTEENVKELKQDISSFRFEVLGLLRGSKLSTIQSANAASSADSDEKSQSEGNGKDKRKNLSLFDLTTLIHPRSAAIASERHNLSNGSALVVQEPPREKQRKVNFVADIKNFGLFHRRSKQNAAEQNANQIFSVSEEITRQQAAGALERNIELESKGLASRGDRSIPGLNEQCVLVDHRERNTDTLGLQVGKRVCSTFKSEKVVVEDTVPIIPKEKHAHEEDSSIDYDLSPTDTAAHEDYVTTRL

[7] = NIH-3T3 fibroblast cytotoxicity, dose response, cytotoxicity control, cell-based, fluorescence, Alamar Blue, secondary assay (AID 2327); assay type: functional;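 further: NIH-3T3 mouse fibroblasts cultured with fluconazole at 8 µg/mL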
[8] = molecular target: T2, Heat shock factor protein 1; assay: HSF1 potentiators in luciferase reporter cells, confirmation, cell-based, NIH3T3, luminescence, dose retest (AID 435004); assay type: functional;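 further: stress induced by proteasome inhibitor MG132 added 30 min after compound; luciferase reporter driven by HSF1 response element in NIH3T3 cells; actives raise luminescence as potentiators of the MG132 stress response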
[9] = test system: INS1; assay: beta cell apoptosis inhibitors, cytokine rescue, dose response, luminescence, retest (AID 449756); assay type: functional, cell-based; conditions: Rattus norvegicus;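 further: cell death triggered by IL-1 beta plus TNF-alpha plus IFN-gamma mixture; protective hits raise ATP signal compared with cytokine alone wells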
[10] = growth suppression of beta-catenin-knockout colon cells, dose response, cell-based, HCT116, human colon tumor (AID 1045); assay type: functional;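 further: HCT116 colon tumor cells with beta catenin knocked out; cells exposed to compound for 60 hours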
[11] = growth suppression of PTEN-null colon cells, dose response, cell-based, HCT116 PTEN knockout (AID 1047); assay type: functional;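 further: HCT116 colon tumor cells with PTEN knocked out; cells exposed to compound for 60 hours before readout; potency for loss of cell viability measured by luminescence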
[12] = C. albicans growth with fluconazole, confirmation, fluorescence, retest (AID 2467); assay type: functional, cell-based
[13] = inhibitors of intracellular T. cruzi replication, confirmation, NIH3T3 host cells, beta-gal luminescence (AID 2044); assay type: functional, cell-based;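 further: intracellular parasites grown in NIH/3T3 mouse fibroblasts as host cells; luminescent beta-galactosidase reporter signal from transgenic T. cruzi replicating inside host cells; inhibitors lower the luminescence signal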
[14] = cells; assay type: functional
[15] = Vero E6 cell cytotoxicity, dose response, cytotoxicity control for non-replicating M. tuberculosis project, secondary assay (AID 492998); assay type: functional, VeroE6; conditions: Vero C1008
[16] = microbe, parasite or virus in culture; assay type: functional; conditions: Mycobacterium tuberculosis
[17] = molecular target: Glucose-6-phosphate 1-dehydrogenase (Homo sapiens, UniProt P11413); assay: human G6PD enzyme inhibitors, dose response, selectivity assay for P. falciparum G6PD inhibitor project, biochemical, fluorescence (AID 504792); assay type: functional
[18] = THP-1 cell cytotoxicity, dose response, cytotoxicity control for non-replicating M. tuberculosis project (AID 489025); assay type: functional
[19] = test system: Streptococcus sp. 'group A'; assay: growth inhibition of control SK(-) GAS strain, dose response, counter-screen for streptokinase expression inhibitor project, luminescence, kanamycin, BacTiterGlo, confirmation (AID 1900); assay type: functional, organism-based
[20] = test system: Streptococcus; assay: Group A Streptococcus viability loss, dose response, counter-screen for streptokinase expression inhibitor project, luminescence, BacTiterGlo (AID 1915); assay type: functional, organism-based;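 further: potency for reduction of bacterial viability or growth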
[21] = molecular target: T4, Streptokinase A (Streptococcus pyogenes serotype M1, UniProt P10520); assay: S. pyogenes streptokinase expression inhibitors, potency, dose response, plasminogen activation absorbance, OD405 (AID 1914); assay type: functional, Streptococcus pyogenes M1 GAS;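 further: secreted streptokinase activity via plasminogen activation per viability signal from cell pellet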
T4 sequence (P10520 whole entry): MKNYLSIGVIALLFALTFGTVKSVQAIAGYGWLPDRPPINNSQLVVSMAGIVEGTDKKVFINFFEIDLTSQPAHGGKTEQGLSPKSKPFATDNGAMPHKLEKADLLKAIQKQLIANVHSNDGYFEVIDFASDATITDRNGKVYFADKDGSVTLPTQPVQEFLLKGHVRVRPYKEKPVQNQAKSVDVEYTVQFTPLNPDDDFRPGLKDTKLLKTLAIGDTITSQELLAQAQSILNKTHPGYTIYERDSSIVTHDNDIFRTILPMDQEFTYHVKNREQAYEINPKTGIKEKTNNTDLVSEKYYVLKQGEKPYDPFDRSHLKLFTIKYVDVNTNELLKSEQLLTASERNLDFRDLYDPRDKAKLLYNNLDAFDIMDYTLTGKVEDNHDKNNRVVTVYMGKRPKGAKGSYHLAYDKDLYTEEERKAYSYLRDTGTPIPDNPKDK

[22] = molecular target: T5, Estrogen receptor (Homo sapiens, UniProt P03372);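 further: potency for inhibiting coactivator peptide recruitment to the receptor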
T5 sequence (P03372 whole entry): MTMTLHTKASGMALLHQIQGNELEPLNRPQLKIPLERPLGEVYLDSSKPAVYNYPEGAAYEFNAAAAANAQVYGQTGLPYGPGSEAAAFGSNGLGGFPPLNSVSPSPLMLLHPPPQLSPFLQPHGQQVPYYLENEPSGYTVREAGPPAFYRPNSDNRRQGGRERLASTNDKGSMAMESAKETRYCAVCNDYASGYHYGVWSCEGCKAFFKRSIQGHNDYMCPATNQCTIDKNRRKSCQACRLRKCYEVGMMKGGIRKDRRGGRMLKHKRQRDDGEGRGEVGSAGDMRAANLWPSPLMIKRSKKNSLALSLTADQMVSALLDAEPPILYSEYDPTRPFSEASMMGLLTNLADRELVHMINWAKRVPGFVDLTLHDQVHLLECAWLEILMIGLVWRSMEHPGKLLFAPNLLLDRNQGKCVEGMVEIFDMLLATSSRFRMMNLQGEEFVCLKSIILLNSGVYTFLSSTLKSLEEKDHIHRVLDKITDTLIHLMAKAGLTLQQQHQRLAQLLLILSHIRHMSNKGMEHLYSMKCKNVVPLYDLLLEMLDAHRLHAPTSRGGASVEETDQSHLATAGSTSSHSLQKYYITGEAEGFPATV

[23] = molecular target: Genome polyprotein (dengue virus type 2, UniProt P29990); assay: Dengue-2 NS5 methyltransferase inhibitors, primary screen, biochemical, confirmation dose response (AID 588689); assay type: functional
[24] = molecular target: Induced myeloid leukemia cell differentiation protein Mcl-1 (Homo sapiens, UniProt Q07820); assay type: functional
Sequence of Induced myeloid leukemia cell differentiation protein Mcl-1 (Q07820 whole entry): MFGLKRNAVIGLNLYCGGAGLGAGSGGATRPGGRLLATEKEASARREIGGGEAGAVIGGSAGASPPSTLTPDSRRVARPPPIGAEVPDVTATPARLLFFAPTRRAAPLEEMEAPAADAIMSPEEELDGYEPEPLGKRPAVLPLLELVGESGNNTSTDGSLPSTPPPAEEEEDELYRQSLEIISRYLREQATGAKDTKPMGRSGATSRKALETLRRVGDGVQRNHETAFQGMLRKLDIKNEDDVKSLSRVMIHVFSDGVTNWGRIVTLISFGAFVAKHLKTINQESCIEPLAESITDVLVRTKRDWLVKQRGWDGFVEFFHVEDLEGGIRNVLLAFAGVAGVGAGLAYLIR

Sequence of Genome polyprotein (P29990 2492-3391 limits assumed): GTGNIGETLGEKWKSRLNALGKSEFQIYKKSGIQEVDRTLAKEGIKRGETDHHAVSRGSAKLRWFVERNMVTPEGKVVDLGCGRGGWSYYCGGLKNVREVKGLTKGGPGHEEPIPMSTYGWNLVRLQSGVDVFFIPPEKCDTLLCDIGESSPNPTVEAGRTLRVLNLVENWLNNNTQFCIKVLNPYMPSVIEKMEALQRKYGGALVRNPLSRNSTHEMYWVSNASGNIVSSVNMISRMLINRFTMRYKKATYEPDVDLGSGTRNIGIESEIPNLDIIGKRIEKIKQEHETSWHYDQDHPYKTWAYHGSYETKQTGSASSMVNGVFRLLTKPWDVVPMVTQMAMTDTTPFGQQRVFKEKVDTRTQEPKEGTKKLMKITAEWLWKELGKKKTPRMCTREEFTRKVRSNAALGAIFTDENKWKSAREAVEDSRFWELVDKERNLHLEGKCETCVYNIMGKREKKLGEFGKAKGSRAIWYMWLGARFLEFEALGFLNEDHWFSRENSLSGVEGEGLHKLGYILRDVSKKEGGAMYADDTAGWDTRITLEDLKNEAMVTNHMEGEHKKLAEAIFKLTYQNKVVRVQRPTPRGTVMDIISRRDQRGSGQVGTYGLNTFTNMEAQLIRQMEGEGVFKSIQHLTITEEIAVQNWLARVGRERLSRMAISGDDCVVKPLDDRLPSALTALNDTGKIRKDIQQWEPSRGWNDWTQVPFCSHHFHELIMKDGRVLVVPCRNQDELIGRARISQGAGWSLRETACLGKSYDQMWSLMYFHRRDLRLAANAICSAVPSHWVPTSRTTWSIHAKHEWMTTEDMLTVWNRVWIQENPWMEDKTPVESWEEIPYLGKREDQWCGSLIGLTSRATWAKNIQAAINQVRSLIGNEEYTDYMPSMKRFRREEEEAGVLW
Sequence of Glucose-6-phosphate 1-dehydrogenase (P11413 whole entry): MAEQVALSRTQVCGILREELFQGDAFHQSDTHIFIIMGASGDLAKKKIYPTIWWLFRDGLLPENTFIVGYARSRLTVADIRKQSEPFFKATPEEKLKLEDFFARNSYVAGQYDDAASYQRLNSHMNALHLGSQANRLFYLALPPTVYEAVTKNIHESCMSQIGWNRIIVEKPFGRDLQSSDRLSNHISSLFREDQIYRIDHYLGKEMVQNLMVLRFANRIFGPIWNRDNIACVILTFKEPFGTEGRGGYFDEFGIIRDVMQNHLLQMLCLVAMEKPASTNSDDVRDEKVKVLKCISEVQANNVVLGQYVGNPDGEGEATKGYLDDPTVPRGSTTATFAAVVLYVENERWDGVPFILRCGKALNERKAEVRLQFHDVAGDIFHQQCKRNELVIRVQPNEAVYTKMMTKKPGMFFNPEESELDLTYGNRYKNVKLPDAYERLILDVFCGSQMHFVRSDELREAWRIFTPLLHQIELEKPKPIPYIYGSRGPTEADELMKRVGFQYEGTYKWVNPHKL

In the case of `Nc1c(C(=O)N2CCCC2)sc2nc3c(cc12)CCCCCC3`, the CC50 [1] was > 40 µM (active).

With `O=C1CCC2S/C(=C/Nc3ccc(C(F)(F)F)cc3)C(=O)N12` (stereo not drawn) the AC50 [2] was 3.57 µM (active), the IC50 [3] was > 80 µM (inactive) and the EC50 [4] was 2.44 µM (active).

In the case of `CC#CC[N+](C)(C)CCCCCCCCCCCC`, the EC50 [5] was > 30 µM (not active), the EC50 [6] was 1.5 µM (active) and the EC50 [7] was > 150 µM (inactive). For the same compound, the EC50 [8] was > 260 µM (inactive), the CC50 [1] was > 40 µM (active) and the AC50 [9] was 1.85 µM (active). The EC50 [10] was 5.82 µM (active), the EC50 [11] was 4.9 µM (active) and the EC50 [12] was 2.85 µM (active). The EC50 [13] was 1.05 µM (active).

For `Cc1cccc(NC(=O)Cn2c(=O)n(Cc3ccccc3)c(=O)c3c(C)c(C)sc32)c1`, the CC50 [1] was > 40 µM (active).

In the case of `CCOC(=O)Cc1csc(NC(=S)NC(=O)c2ccc(C)cc2)n1`, the IC50 [3] was > 80 µM (inactive).

In the case of `CC(C)Cn1c([N+](=O)[O-])nc2c1c(=O)[nH]c(=O)n2C`, the IC50 [14] was 5.98 µM (active), the IC50 [3] was 47.3 µM (inactive) and the CC50 [15] was 14.6 µM (active). For the same compound, the CC50 [16] was 12.4 µM (active), the IC50 [17] was > 80 µM (inactive) and the CC50 [18] was 9.18 µM (active).

For `Cc1nn(Cc2ccc(C(=O)Nc3nc4c(C)cccc4s3)o2)c(C)c1Br`, the EC50 [19] was 4.94 µM (active), the EC50 [20] was 8.54 µM (active) and the EC50 [21] was 5.58 µM (active). The IC50 [22] was > 50 µM (not active).

With `COC(=O)C1=C(C(=O)OC)C(c2cc(Cl)ccc2O)c2sc(O)nc2S1` (stereo not drawn) the IC50 [23] was > 100 µM (active) and the IC50 [24] was 4.4 µM (active).
